The results in this text go back to US20230399312A1, “SUBSTITUTED PYRIMIDINES AND METHODS OF USE” (THERAVANCE BIOPHARMA R&D IP, LLC, priority 2020, published 2023).

pKi: −log10 of the molar value.

Assay [1] addresses T1, recombinant human ALK5 (TGF-βR1) protein (Homo sapiens, UniProt P36897).
T1 construct: purchased Life Technologies PR9075A
T1 sequence (P36897 34-503): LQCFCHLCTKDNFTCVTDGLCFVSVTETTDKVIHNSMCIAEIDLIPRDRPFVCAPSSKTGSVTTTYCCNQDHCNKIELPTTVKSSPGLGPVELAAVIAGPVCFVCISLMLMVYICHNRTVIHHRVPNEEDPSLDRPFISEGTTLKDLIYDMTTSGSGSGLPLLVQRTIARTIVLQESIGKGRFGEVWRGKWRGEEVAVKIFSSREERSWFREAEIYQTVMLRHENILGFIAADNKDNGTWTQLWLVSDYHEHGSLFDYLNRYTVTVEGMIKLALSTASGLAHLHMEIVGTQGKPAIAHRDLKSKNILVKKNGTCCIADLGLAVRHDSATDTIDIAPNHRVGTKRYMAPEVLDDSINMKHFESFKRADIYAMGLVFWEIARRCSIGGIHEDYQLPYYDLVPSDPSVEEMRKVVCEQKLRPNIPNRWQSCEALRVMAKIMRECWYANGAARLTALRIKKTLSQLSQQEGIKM
As to the kind of experiment: Biochemical ALK5 (TGF-βR1) assay to measure pKi (LANCE Ultra ULight kinase assay). The note with it: apparent pKi, converted from pIC50 by Cheng-Prusoff. Put shortly:
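Europium TR-FRET kinase assay: the enzyme is exposed to compound for 60 min at room temperature, and reaction with ATP runs 60 min at 37 °C. Percent inhibition relative to DMSO and SD-208 controls gives pIC50, which is converted to pKi.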
(In general: Time-resolved FRET reads energy transfer from a long-lived donor to a nearby acceptor.)

The test system of assay [2] is TGF-β-stimulated SMAD3 phosphorylation in BEAS-2B cells. As to the kind of experiment: Cellular ALK5 potency assay, inhibition of TGF-β stimulated pSMAD3 formation in BEAS-2B cells. The class given is cell-based. The conditions noted are these: Homo sapiens, pSMAD3, TGF-β 10 ng/mL, read-out: BEAS2B pIC50 (converted). Put shortly: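 Potency is expressed as pIC50, based on dose-dependent reduction of TGF-β-induced pSMAD3 AlphaLISA signal relative to stimulated cells without compound. BEAS-2B cells received compound 1 h before a 30 min, 10 ng/mL TGF-β challenge.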

A word on the pKi: it is the negative decadic logarithm of the Ki, by convention in mol/L. With `Cc1cccc(-c2nccc(Nc3ccnc(Nc4ccc(CN5CCC(C(=O)O[C@H]6CCN(C)C6)C5)cc4)n3)n2)n1` (stereo partly drawn) [Compound 161, [(3S)-1-methylpyrrolidin-3-yl] 1-[[4-[[4-[[2-(6-methyl-2-pyridyl)pyrimidin-4-yl]amino]pyrimidin-2-yl]amino]phenyl]methyl] pyrrolidine-3-carboxylate], the pKi in assay [1] was 9.50 to 10.40. In addition, the IC50 in assay [2] was ≤ 20 nM.
For the molecule `Cc1cccc(-c2nccc(Nc3ccnc(Nc4cncc(CN5CC(C(=O)O[C@H]6CCNC6)C5)c4)n3)n2)n1` [Compound 573, [(3S)-pyrrolidin-3-yl] 1-[[5-[[4-[[2-(6-methyl-2-pyridyl)pyrimidin-4-yl]amino]pyrimidin-2-yl]amino]-3-pyridyl]methyl]azetidine-3-carboxylate], the negative-log Ki (pKi) in assay [1] is 9.50 to 10.40. The IC50 in assay [2] was 25.1 to 158 nM.
For `CN1CCN(C2CCN(c3ccc(Nc4nccc(Nc5ccnc(-c6cc(Cl)ccc6F)n5)n4)cc3)CC2)CC1` [Compound 436, N4-[2-(5-chloro-2-fluoro-phenyl)pyrimidin-4-yl]-N2-[4-[4-(4-methylpiperazin-1-yl)-1-piperidyl]phenyl]pyrimidine-2,4-diamine], in that order: 9.50 to 10.40 and 25.1 to 158 nM.
For the molecule `Cc1cccc(-c2nccc(Nc3ccnc(Nc4ccc(C(=O)O[C@@H]5CCN(C)C5)s4)n3)n2)n1` [Compound 52, [(3R)-1-methylpyrrolidin-3-yl] 5-[[4-[[2-(6-methyl-2-pyridyl)pyrimidin-4-yl]amino]pyrimidin-2-yl]amino]thiophene-2-carboxylate], in assay [1], the negative logarithm of the Ki (pKi) is 9.50 to 10.40. Also, the IC50 in assay [2] is 25.1 to 158 nM.
`Cc1cccc(-c2nccc(Nc3ccnc(Nc4csc(NC(=O)C5CNC5)c4)n3)n2)n1` [Compound 211, N-[4-[[4-[[2-(6-methyl-2-pyridyl)pyrimidin-4-yl]amino]pyrimidin-2-yl]amino]-2-thienyl]azetidine-3-carboxamide]: in assay [1], the pKi is 9.50 to 10.40. Also, in assay [2], the IC50 was 25.1 to 158 nM.
As for `CCOC(=O)Cc1cc(Nc2nccc(Nc3ccnc(-c4cccc(C)n4)n3)n2)ccc1N1CCNCC1` [Compound 156, ethyl 2-[5-[[4-[[2-(6-methyl-2-pyridyl)pyrimidin-4-yl]amino]pyrimidin-2-yl]amino]-2-piperazin-1-yl-phenyl]acetate], in assay [1], the negative-log Ki (pKi) is 9.50 to 10.40. For the same molecule, the IC50 in assay [2] is 25.1 to 158 nM.
With `Cc1cccc(-c2nccc(Nc3ccnc(Nc4ccc(CN5CC(O)C5)cc4)n3)n2)n1` [Compound 131, 1-[[4-[[4-[[2-(6-methyl-2-pyridyl)pyrimidin-4-yl]amino]pyrimidin-2-yl]amino]phenyl]methyl] azetidin-3-ol], the negative-log Ki (pKi) in assay [1] is 9.50 to 10.40. Besides, in assay [2], the IC50 is 25.1 to 158 nM.
`Cc1cccc(-c2nccc(Nc3ccnc(Nc4ccc(CN5CCC[C@H](C(=O)OCC6CN(C)C6)C5)cc4)n3)n2)n1` [Compound 73, (1-methylazetidin-3-yl)methyl (3S)-1-[[4-[[4-[[2-(6-methyl-2-pyridyl)pyrimidin-4-yl]amino]pyrimidin-2-yl]amino]phenyl]methyl] piperidine-3-carboxylate]: the negative logarithm of the Ki (pKi) in assay [1] is 9.50 to 10.40. In addition, in assay [2], the IC50 is 25.1 to 158 nM.
For `Cc1cccc(-c2nccc(Nc3ccnc(Nc4ccc(N5CCC(N6CCCC6)CC5)cc4)n3)n2)n1` [Compound 123, N4-[2-(6-methyl-2-pyridyl)pyrimidin-4-yl]-N2-[4-(4-pyrrolidin-1-yl-1-piperidyl)phenyl]pyrimidine-2,4-diamine], in that order: ≥ 10.50 and 25.1 to 158 nM.
As to `Cc1cccc(-c2nccc(Nc3ccnc(Nc4nc(C(=O)NC5(CO)CCNC5)cs4)n3)n2)n1` (stereo not shown) [Compound 520, N-[3-(hydroxymethyl)pyrrolidin-3-yl]-2-[[4-[[2-(6-methyl-2-pyridyl)pyrimidin-4-yl]amino]pyrimidin-2-yl]amino]thiazole-4-carboxamide], in assay [1], the pKi was 9.50 to 10.40. Also, in assay [2], the IC50 was 25.1 to 158 nM.
With `Cc1cccc(-c2nccc(Nc3ccnc(Nc4cccc(NC(=O)C5CCCNC5)c4)n3)n2)n1` (stereo not shown) [Compound 443, N-(3-((4-((2-(6-methylpyridin-2-yl)pyrimidin-4-yl)amino)pyrimidin-2-yl)amino)phenyl)piperidine-3-carboxamide], the pKi in assay [1] was 9.50 to 10.40. Also, the IC50 in assay [2] is ≤ 20 nM.
Take `Cc1cccc(-c2nccc(Nc3ccnc(Nc4ccc(N5CCN(C(=O)CSC(CCO)C(=O)O)CC5)cc4)n3)n2)n1` (stereo not shown) [Compound 37, 4-hydroxy-2-[2-[4-[4-[[4-[[2-(6-methyl-2-pyridyl)pyrimidin-4-yl]amino]pyrimidin-2-yl]amino]phenyl]piperazin-1-yl]-2-oxo-ethyl]sulfanyl-butanoic acid]: the negative logarithm of the Ki (pKi) in assay [1] was 9.50 to 10.40. Moreover, the IC50 in assay [2] is 200 to 1260 nM.
In the case of `Cc1cccc(-c2nccc(Nc3ccnc(Nc4csc(C(=O)NC5CNC5)c4)n3)n2)n1` [Compound 327, N-(azetidin-3-yl)-4-[[4-[[2-(6-methyl-2-pyridyl)pyrimidin-4-yl]amino]pyrimidin-2-yl]amino]thiophene-2-carboxamide], in assay [1], the negative-log Ki (pKi) is ≥ 10.50. For the same molecule, the IC50 in assay [2] was 25.1 to 158 nM.
Turning to `Cc1cccc(-c2nccc(Nc3ccnc(Nc4ccc(CN5CCNCC5(C)C)cc4)n3)n2)n1` [Compound 480, N2-[4-[(2,2-dimethylpiperazin-1-yl)methyl]phenyl]-N4-[2-(6-methyl-2-pyridyl)pyrimidin-4-yl]pyrimidine-2,4-diamine], in assay [1], the pKi is 9.50 to 10.40. Besides, in assay [2], the IC50 is 25.1 to 158 nM.
Take `Cc1cccc(-c2nccc(Nc3ccnc(Nc4ccc5c(c4)CCCN5)n3)n2)n1` [Compound 492, N4-[2-(6-methyl-2-pyridyl)pyrimidin-4-yl]-N2-(1,2,3,4-tetrahydroquinolin-6-yl)pyrimidine-2,4-diamine]: the pKi in assay [1] was 8.50 to 9.40. In addition, the IC50 in assay [2] was 25.1 to 158 nM.
On to `Cc1cccc(-c2nccc(Nc3ccnc(Nc4nc(CN5C[C@@H](C)N[C@@H](C)C5)cs4)n3)n2)n1` [Compound 391, N4-[2-(6-methyl-2-pyridyl)pyrimidin-4-yl]-N2-[4-[[rac-(3R,5S)-3,5-dimethylpiperazin-1-yl]methyl]thiazol-2-yl]pyrimidine-2,4-diamine], for which the pKi in assay [1] was 8.50 to 9.40. The IC50 in assay [2] is 25.1 to 158 nM.
Consider `Cc1cccc(-c2nc(Nc3ccnc(Nc4ccc(NC(=O)C5CCNC5)cc4)n3)c3cccn3n2)n1` (stereo not shown) [Compound 1027, N-[4-[[4-[[2-(6-methyl-2-pyridyl)pyrrolo[2,1-f][1,2,4]triazin-4-yl]amino]pyrimidin-2-yl]amino]phenyl]pyrrolidine-3-carboxamide], for which, in assay [1], the pKi is 9.50 to 10.40. For the same molecule, in assay [2], the IC50 is 25.1 to 158 nM.
As for `Cc1cccc(-c2nccc(Nc3ccnc(Nc4ccc(CN5CC(C(=O)OC6CCNCC6)C5)cc4)n3)n2)n1` [Compound 22, 4-piperidyl 1-[[4-[[4-[[2-(6-methyl-2-pyridyl)pyrimidin-4-yl]amino]pyrimidin-2-yl]amino]phenyl]methyl] azetidine-3-carboxylate], the pKi in assay [1] was 9.50 to 10.40. Further, the IC50 in assay [2] was 25.1 to 158 nM.
Take `Cc1cccc(-c2nccc(Nc3ccnc(Nc4cccc(NC(=O)N5CCNCC5)c4)n3)n2)n1` [Compound 298, N-[3-[[4-[[2-(6-methyl-2-pyridyl)pyrimidin-4-yl]amino]pyrimidin-2-yl]amino]phenyl]piperazine-1-carboxamide]: in assay [1], the negative logarithm of the Ki (pKi) is 9.50 to 10.40. The IC50 in assay [2] is 25.1 to 158 nM.
`CNCCn1cc(-c2ccc(Nc3nccc(Nc4ccnc(-c5cccc(C)n5)n4)n3)cc2)cn1` [Compound 347, N2-(4-(1-(2-(methylamino)ethyl)-1H-pyrazol-4-yl)phenyl)-N4-(2-(6-methylpyridin-2-yl)pyrimidin-4-yl)pyrimidine-2,4-diamine]: the negative-log Ki (pKi) in assay [1] is 9.50 to 10.40. The IC50 in assay [2] was 25.1 to 158 nM.
Consider `Cc1cccc(-c2nccc(Nc3ccnc(Nc4ccc(-c5cnn(CCN(C)C)c5)cc4)n3)n2)n1` [Compound 356, N2-[4-[1-[2-(dimethylamino)ethyl]pyrazol-4-yl]phenyl]-N4-[2-(6-methyl-2-pyridyl)pyrimidin-4-yl]pyrimidine-2,4-diamine], for which, in assay [1], the pKi was 9.50 to 10.40. Moreover, the IC50 in assay [2] was 25.1 to 158 nM.
In the same order, the values of `Cc1cccc(-c2nccc(Nc3ccnc(Nc4ccc5c(c4)CN(C(C)C)CC5)n3)n2)n1` [Compound 198, N2-(2-isopropyl-3,4-dihydro-1H-isoquinolin-7-yl)-N4-[2-(6-methyl-2-pyridyl)pyrimidin-4-yl]pyrimidine-2,4-diamine] are 9.50 to 10.40 and 25.1 to 158 nM.
For `COC(=O)Cc1ccc(Nc2nccc(Nc3nc(-c4cccc(C)n4)nn4cccc34)n2)cc1` [Compound 1019, methyl 2-[4-[[4-[[2-(6-methyl-2-pyridyl)pyrrolo[2,1-f][1,2,4]triazin-4-yl]amino]pyrimidin-2-yl]amino]phenyl]acetate], in that order: 8.50 to 9.40 and 200 to 1260 nM.
